In one assay the target is T1, recombinant human MAO-B (Homo sapiens, UniProt P27338).
T1 sequence (P27338 1-520): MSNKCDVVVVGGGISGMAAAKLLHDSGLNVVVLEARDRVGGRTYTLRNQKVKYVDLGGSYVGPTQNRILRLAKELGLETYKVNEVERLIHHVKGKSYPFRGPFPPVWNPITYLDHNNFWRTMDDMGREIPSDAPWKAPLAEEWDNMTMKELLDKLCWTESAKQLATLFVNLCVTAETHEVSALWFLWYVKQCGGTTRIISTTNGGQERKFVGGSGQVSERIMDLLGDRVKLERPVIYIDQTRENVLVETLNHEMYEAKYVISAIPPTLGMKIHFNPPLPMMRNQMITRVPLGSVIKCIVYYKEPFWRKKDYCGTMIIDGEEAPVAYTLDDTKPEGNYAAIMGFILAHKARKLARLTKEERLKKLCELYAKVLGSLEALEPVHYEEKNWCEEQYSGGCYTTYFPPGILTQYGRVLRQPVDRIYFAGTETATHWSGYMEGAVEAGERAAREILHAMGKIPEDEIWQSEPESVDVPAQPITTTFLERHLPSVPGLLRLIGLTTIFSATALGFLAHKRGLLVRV
Description: Cell-free Fluorescent Monoamine Oxidase A&B Detection Assay, MAO-B. The assay is classed as biochemical. As for the experimental part:
(§1) The assay was repeated to confirm data.
(§2) MAO B specific inhibitory activity and selectivity over MAO A is assayed using a commercial kit [Fluoro MAO A and B detection kit (Cell Technology Inc™)]. This kit uses a non-fluorescent detection reagent to measure H2O2 released from the conversion of an MAO A and MAO B substrate specific to its aldehyde. Furthermore, H2O2 oxidizes the detection reagent in a 1:1 stoichiometry to produce a fluorescent product (resorufin). […] This information is then provided to the medicinal chemists to help direct synthesis of subsequent iterations.

In a further assay the target is T2, recombinant human MAO-A (Homo sapiens, UniProt P21397).
T2 sequence (P21397 1-527): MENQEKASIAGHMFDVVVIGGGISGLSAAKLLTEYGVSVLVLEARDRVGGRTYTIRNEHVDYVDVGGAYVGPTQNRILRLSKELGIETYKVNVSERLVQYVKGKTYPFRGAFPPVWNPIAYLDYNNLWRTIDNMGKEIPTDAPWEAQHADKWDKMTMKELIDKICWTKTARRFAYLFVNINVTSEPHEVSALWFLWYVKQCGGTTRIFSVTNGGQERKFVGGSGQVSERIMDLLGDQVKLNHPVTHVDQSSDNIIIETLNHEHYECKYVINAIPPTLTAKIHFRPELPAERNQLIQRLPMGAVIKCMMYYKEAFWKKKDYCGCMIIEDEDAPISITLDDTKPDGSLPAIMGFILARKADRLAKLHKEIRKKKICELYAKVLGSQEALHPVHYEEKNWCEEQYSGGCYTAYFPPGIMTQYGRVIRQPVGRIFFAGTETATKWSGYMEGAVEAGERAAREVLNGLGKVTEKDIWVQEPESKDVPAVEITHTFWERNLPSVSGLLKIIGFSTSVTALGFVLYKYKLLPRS
Description: Cell-free Fluorescent Monoamine Oxidase A&B Detection Assay, MAO-A. The assay is classed as biochemical. As for the experimental part:
as §1, §2

The mark [1] stands for this setting: cell-free, recombinant human MAO-A.

Counter-ions that a name gives are not always drawn. Like-named read-outs stand apart in the source and are kept apart here.

`O=C(O)c1coc(Cc2ccc(OCc3ccccc3)cc2)n1` [PS-AD0031]: at recombinant human MAO-B, the “IC90 MAO-B (μM)” value is listed as “Does not”. The “IC50 MAO-A (μM)” value on recombinant human MAO-A (setting [1]) is on record as “Does not”.
For `C[C@H](Cc1ccc(OCc2cc(Cl)ccc2Cl)cc1)N(C)CC(=O)O.Cl` [PS-AD0064, (R)—N-(1-(4-((2,5-dichlorobenzyl)oxy)phenyl)propan-2-yl)-N-methylglycine hydrochloride], the IC90 at recombinant human MAO-B was 25.8 µM. Further, at recombinant human MAO-B (read-out: IC50 MAO-B), the IC50 is 1.27 µM. Also, the “IC50 MAO-A (μM)” value on recombinant human MAO-A (setting [1]) is “Does not”.
Taken in the same sequence, the figures for `C[C@H](Cc1ccc(OCc2ccc(C(=O)O)cc2)cc1)N(C)CC(=O)O.Cl` [PS-AD0065 B, (R)-4-((4-(2-((carboxymethyl)(methyl)amino)propyl)phenoxy)methyl)benzoic acid hydrochloride] were 149 µM, 10 µM and “Does not”.
Taken in the same sequence, the figures for `C[C@H](Cc1ccc(OCc2ccc(C#N)cc2)cc1)N(C)CC(=O)O.Cl` [PS-AD0065, (R)—N-(1-(4-((4-cyanobenzyl)oxy)phenyl)propan-2-yl)-N-methylglycine hydrochloride] were 81.1 µM, 3.28 µM and “Does not”.
Consider `C[C@H](Cc1ccc(OCc2ccncc2)cc1)N(C)CC(=O)O.Cl.Cl` [PS-AD0068, (R)—N-methyl-N-(1-(4-(pyridin-4-ylmethoxy)phenyl)propan-2-yl)glycine hydrochloride], for which, at recombinant human MAO-B, the IC90 was found to be 506 µM. In addition, the IC50 on recombinant human MAO-B (read-out: IC50 MAO-B) amounted to 20 µM. The “IC50 MAO-A (μM)” value at recombinant human MAO-A (setting [1]) is reported as “Does not”.
The matching figures for `CN(CC(=O)O)[C@H](CCl)Cc1ccc(OCc2ccccc2)cc1` [PS-AD0095, (S)—N-(1-(4-(benzyloxy)phenyl)-3-chloropropan-2-yl)-N-methylglycine]: 13.4 µM, 1.4 µM and “Does not”.
The matching figures for `CN(CC(=O)O)[C@H](CCO)Cc1ccc(OCc2ccccc2)cc1.Cl` [PS-AD0179, (S)—N-(1-(4-(benzyloxy)phenyl)-4-hydroxybutan-2-yl)-N-methylglycine]: 167 µM, 7.82 µM and “Does not”.
Regarding `CN(CC(=O)O)[C@H](CC#N)Cc1ccc(OCc2ccccc2)cc1.Cl` [PS-AD0186, (S)—N-(1-(4-(benzyloxy)phenyl)-3-cyanopropan-2-yl)-N-methylglycine], the IC90 on recombinant human MAO-B stood at 4.44 µM. Moreover, the half-inhibitory concentration (IC50) on recombinant human MAO-B (read-out: IC50 MAO-B) turned out to be 0.56 µM. The “IC50 MAO-A (μM)” value on recombinant human MAO-A (setting [1]) is “Does not”.
`C[C@H](Cc1ccc(OCc2cnc3ncccn23)cc1)N(C)CC(=O)O.Cl` [PS-AD0223]: the “IC90 MAO-B (μM)” value at recombinant human MAO-B was “Does not”. Moreover, the “IC50 MAO-A (μM)” value on recombinant human MAO-A (setting [1]) is “Does not”.
In the case of `C[C@H](Cc1ccc(Oc2ccccc2)cc1)N(C)CC(=O)O` [PS-RG0008, N—((R)-(1-(4-(phenoxy)phenyl)propan-2-yl)(methyl))glycine hydrochloride], the IC90 at recombinant human MAO-B amounted to 331 µM. The IC50 at recombinant human MAO-B (read-out: IC50 MAO-B) turned out to be 69.2 µM. For the same molecule, the “IC50 MAO-A (μM)” value at recombinant human MAO-A (setting [1]) is recorded as “Does not”.
Consider `CN(CC(=O)O)Cc1ccccc1.Cl` [PS-RG0019], for which the “IC90 MAO-B (μM)” value on recombinant human MAO-B is “Does not”. In addition, the “IC50 MAO-A (μM)” value on recombinant human MAO-A (setting [1]) is given as “Does not”.
Turning to `CN(CCc1ccccc1)CC(=O)O.Cl` [PS-RG0020], the “IC90 MAO-B (μM)” value on recombinant human MAO-B is “Does not”. Besides, at recombinant human MAO-A (setting [1]), the “IC50 MAO-A (μM)” value is listed as “Does not”.
With `C[C@H](Cc1ccc(OCc2ccccc2)cc1)N(C)CC(=O)O` [PS-RG0031A, N—((R)-(1-(4-(benzyloxy)phenyl)propan-2-yl)(methyl))glycine hydrochloride], the concentration for an effect of 90% (IC90) on recombinant human MAO-B worked out at 30.5 µM. Besides, the IC50 on recombinant human MAO-B (read-out: IC50 MAO-B) stood at 0.908 µM. Besides, the “IC50 MAO-A (μM)” value on recombinant human MAO-A (setting [1]) is recorded as “Does not”.
In the case of `CN(CCc1ccc(Oc2ccccc2)cc1)CC(=O)O.Cl` [PS-RG0058], the “IC90 MAO-B (μM)” value on recombinant human MAO-B is “Does not”. Also, the “IC50 MAO-A (μM)” value on recombinant human MAO-A (setting [1]) is recorded as “Does not”.
Turning to `C#CCN(C)[C@H](C)Cc1ccc(OCc2ccccc2)cc1` [PS-RG0061], the IC90 at recombinant human MAO-B was found to be 0.023 µM; at recombinant human MAO-A (read-out: IC90 MAO-A (μM)) it was 1.05 µM. In addition, the IC50 worked out at 0.00458 µM on recombinant human MAO-B (read-out: IC50 MAO-B) and 0.163 µM on recombinant human MAO-A (IC50 MAO-A (μM), cell-free, recombinant human MAO-A).
Consider `CN(CCc1ccc(OCc2ccccc2)cc1)CC(=O)O.Cl` [PS-RG0064, N,N-(4-(Benzyloxy)phenethyl)(methyl)glycine hydrochloride], for which the IC90 at recombinant human MAO-B was 252 µM. The IC50 on recombinant human MAO-B (read-out: IC50 MAO-B) stood at 7.33 µM. Besides, the “IC50 MAO-A (μM)” value on recombinant human MAO-A (setting [1]) is on record as “Does not”.
Regarding `C#CCN(C)CCc1ccccc1` [PS-RG0070], the IC90 on recombinant human MAO-B came to 0.0306 µM; on recombinant human MAO-A (cell-free, recombinant human MAO-A, read-out: IC90 MAO-A) it was 126 µM. The IC50 stood at 0.0107 µM at recombinant human MAO-B (IC50 MAO-B (μM)) and 12.5 µM at recombinant human MAO-A (cell-free, recombinant human MAO-A, read-out: IC50 MAO-A).
`CN(CC(=O)O)C(=O)C=C1COc2cc(Oc3ccccc3)ccc21` [PS-RG0080]: the “IC90 MAO-B (μM)” value at recombinant human MAO-B is on record as “Does not”. In addition, the “IC50 MAO-A (μM)” value at recombinant human MAO-A (setting [1]) is on record as “Does not”.
Take `CN(CC(=O)O)Cc1cc(=O)oc2cc(Oc3ccccc3)ccc12.Cl` [PS-RG0097]: the “IC90 MAO-B (μM)” value at recombinant human MAO-B is given as “Does not”. Also, the “IC50 MAO-A (μM)” value on recombinant human MAO-A (setting [1]) is on record as “Does not”.
`CN(CC(=O)O)Cc1cc(=O)oc2cc(OCc3ccccc3)ccc12.Cl` [PS-RG0098, N-((7-(benzyloxy)-2-oxo-2H-chromen-4-yl)methyl)-N-methylglycine hydrochloride]: the IC90 on recombinant human MAO-B came to 4.1 µM. For the same molecule, at recombinant human MAO-B (read-out: IC50 MAO-B), the IC50 came out at 0.799 µM. In addition, the “IC50 MAO-A (μM)” value on recombinant human MAO-A (setting [1]) is “Does not”.
Taken in the same sequence, the figures for `C[C@H](Cc1ccc(OCc2ccccc2Cl)cc1)N(C)CC(=O)O` [PS-RG0121, N—((R)-(1-(4-(2-chlorobenzyloxy)phenyl)propan-2-yl)(methyl))glycine hydrochloride] were 8.13 µM, 0.668 µM and “Does not”.
Regarding `COC(=O)[C@H](Cc1ccc(OCc2cccc(Cl)c2)cc1)N(C)CC(=O)O` [PS-RG0122, N-Carboxymethyl-N-methyl-O-3-chlorobenzyloxytyrosine methyl ester hydrochloride], the concentration for an effect of 90% (IC90) at recombinant human MAO-B worked out at 19.1 µM. The IC50 on recombinant human MAO-B (read-out: IC50 MAO-B) was 1.43 µM. Moreover, the “IC50 MAO-A (μM)” value on recombinant human MAO-A (setting [1]) is recorded as “Does not”.
As to `COC(=O)[C@H](Cc1ccc(OCc2ccccc2)cc1)N(C)CC(=O)O.Cl` [PS-RG0123, N-Carboxymethyl)-N-(methyl-O-benzyloxytyrosine methyl ester hydrochloride], on recombinant human MAO-B, the IC90 came to 354 µM. Moreover, the IC50 on recombinant human MAO-B (read-out: IC50 MAO-B) was determined as 9.95 µM. On recombinant human MAO-A (setting [1]), the “IC50 MAO-A (μM)” value is “Does not”.
Take `C[C@H](Cc1ccc(OCc2ccccc2C#N)cc1)N(C)CC(=O)O.Cl` [PS-RG0171, (R)—N-(1-(4-((2-cyanobenzyl)oxy)phenyl)propan-2-yl)-N-methylglycine hydrochloride]: the IC90 on recombinant human MAO-B was determined as 1080 µM. Besides, at recombinant human MAO-B (read-out: IC50 MAO-B), the IC50 was 13 µM. Moreover, at recombinant human MAO-A (setting [1]), the “IC50 MAO-A (μM)” value is listed as “Does not”.
The matching figures for `C[C@H](Cc1ccc(OCc2cccc(C#N)c2)cc1)N(C)CC(=O)O.Cl` [PS-RG0172, (R)—N-(1-(4-((3-cyanobenzyl)oxy)phenyl)propan-2-yl)-N-methylglycine hydrochloride]: 1840 µM, 19.7 µM and “Does not”.
Taken in the same sequence, the figures for `C[C@H](Cc1ccc(OCc2cccc(F)c2)cc1)N(C)CC(=O)O.Cl` [PS-RG0173, (R)—N-(1-(4-((3-fluorobenzyl)oxy)phenyl)propan-2-yl)-N-methylglycine hydrochloride] were 13.5 µM, 0.785 µM and “Does not”.

The values above are taken from patent publication US10196345B2, “MAO-B selective inhibitor compounds, pharmaceutical compositions thereof and uses thereof” (The University of British Columbia, priority 2013, dated 2019).
